Source: US9232790B2, “Antimicrobial cleansing compositions” (KIMBERLY-CLARK WORLDWIDE, INC., priority 2011, dated 2016)

Key:
Assay type in all cases: cell-based
E. faecalis (ATCC 29212) = experiment: Impact of CAPB on cationic biocides, 60 second contact test against E. faecalis; conditions: 0.3% active, 60 seconds contact, 0.3 g/L bovine serum albumin; for LOG10 CFU/ml Reduction, w/ CAPB: with CAPB 3.5% w/w active; for LOG10 CFU/ml Reduction, w/o CAPB: without CAPB
Protocol: In this Example, the impact of cocamidopropyl betaine (CAPB) on the antimicrobial activity of cationic biocides against E. faecalis (ATCC 29212) was analyzed.
Specifically, E. faecalis was contacted for 60 seconds in a 0.3 g/L solution of bovine serum albumin mixed with a solution containing a cationic biocide, with or without CAPB (3.5% w/w active).

E. coli K12 (ATCC 29425) [1] = experiment: Impact of CAPB on cationic biocides, 60 second contact test against E. coli K12; conditions: 0.3% active, 60 seconds contact, 0.3 g/L bovine serum albumin; for LOG10 CFU/ml Reduction, w/ CAPB: with CAPB 3.5% w/w active; for LOG10 CFU/ml Reduction, w/o CAPB: without CAPB
Protocol: In this Example, the impact of cocamidopropyl betaine (CAPB) on the antimicrobial activity of cationic biocides against E. coli K12 (ATCC 29425) was analyzed.
Specifically, E. coli K12 was contacted for 60 seconds in a 0.3 g/L solution of bovine serum albumin mixed with a solution containing a cationic biocide, with or without CAPB (3.5% w/w active).

S. aureus (ATCC 6538) = experiment: Impact of CAPB on cationic biocides, 60 second contact test against S. aureus; conditions: 0.3% active, 60 seconds contact, 0.3 g/L bovine serum albumin; for LOG10 CFU/ml Reduction, w/ CAPB: with CAPB 3.5% w/w active; for LOG10 CFU/ml Reduction, w/o CAPB: without CAPB
Protocol: In this Example, the impact of cocamidopropyl betaine (CAPB) on the antimicrobial activity of cationic biocides against S. aureus (ATCC 6538) was analyzed.
Specifically, S. aureus was contacted for 60 seconds in a 0.3 g/L solution of bovine serum albumin mixed with a solution containing a cationic biocide, with or without CAPB (3.5% w/w active).

[2] = test system: P. aeruginosa (ATCC 15442); experiment: Impact of CAPB on cationic biocides, 60 second contact test against P. aeruginosa; conditions: 0.3% active, 60 seconds contact, 0.3 g/L bovine serum albumin; for LOG10 CFU/ml Reduction, w/ CAPB: with CAPB 3.5% w/w active; for LOG10 CFU/ml Reduction, w/o CAPB: without CAPB
Protocol: In this Example, the impact of cocamidopropyl betaine (CAPB) on the antimicrobial activity of cationic biocides against P. aeruginosa (ATCC 15442) was analyzed.
Specifically, P. aeruginosa was contacted for 60 seconds in a 0.3 g/L solution of bovine serum albumin and mixed with a solution containing a cationic biocide, with or without CAPB (3.5% w/w active).

E. coli K12 (ATCC 29425) [3] = experiment: Impact of other betaine-based surfactants on benzalkonium chloride efficacy against E. coli K12; conditions: 60 seconds contact, 0.3 g/L bovine serum albumin; for LOG10 CFU/ml Reduction, 0.3% benzalkonium chloride + 3.5% surfactant: 0.3% benzalkonium chloride combined with 3.5% of the named betaine-based surfactant
Protocol: In this Example, the impact of other betaine-based surfactants on the antimicrobial activity of benzalkonium chloride against E. coli K12 (ATCC 29425) was analyzed.
Specifically, E. coli K12 was contacted for 60 seconds in a 0.3 g/L solution of bovine serum albumin mixed with a solution containing benzalkonium chloride, with or without a betaine-based surfactant (3.5% w/w active).

Compound | LOG10 CFU/ml Reduction, w/ CAPB (E. faecalis (ATCC 29212)) [LOG10 CFU/ml] | LOG10 CFU/ml Reduction, w/o CAPB (E. faecalis (ATCC 29212)) [LOG10 CFU/ml] | LOG10 CFU/ml Reduction, w/ CAPB (E. coli K12 (ATCC 29425) [1]) [LOG10 CFU/ml] | LOG10 CFU/ml Reduction, w/o CAPB (E. coli K12 (ATCC 29425) [1]) [LOG10 CFU/ml] | LOG10 CFU/ml Reduction, w/ CAPB (S. aureus (ATCC 6538)) [LOG10 CFU/ml] | LOG10 CFU/ml Reduction, w/o CAPB (S. aureus (ATCC 6538)) [LOG10 CFU/ml] | LOG10 CFU/ml Reduction, w/ CAPB [2] [LOG10 CFU/ml] | LOG10 CFU/ml Reduction, w/o CAPB [2] [LOG10 CFU/ml] | LOG10 CFU/ml Reduction, w/ CAPB (S. aureus (ATCC 6538); listed as didecyldimonium chloride) [LOG10 CFU/ml] | LOG10 CFU/ml Reduction, 0.3% benzalkonium chloride + 3.5% surfactant (E. coli K12 (ATCC 29425) [3]) [LOG10 CFU/ml] | LOG10 CFU/ml Reduction, 0.3% benzalkonium chloride (E. coli K12 (ATCC 29425) [3]; 0.3% benzalkonium chloride alone) [LOG10 CFU/ml]
CC(C)(C)CC(C)(C)c1ccc(OCCOCC[N+](C)(C)Cc2ccccc2)cc1 [Benzethonium chloride] | <3.3 | 4.8 | <3.1 | >5.5 | <2.4 | >4.9 | <3.3 | >5.7 | – | – | –
N=C(NCCCCCCNC(=N)NC(=N)Nc1ccc(Cl)cc1)NC(=N)Nc1ccc(Cl)cc1.O=C(O)[C@H](O)[C@@H](O)[C@H](O)[C@H](O)CO.O=C(O)[C@H](O)[C@@H](O)[C@H](O)[C@H](O)CO [Chlorhexidine gluconate] | <3.3 | <3.3 | <3.1 | 5.5 | <2.4 | 3.2 | <3.3 | >5.7 | – | – | –
CCCCCCCCCC[N+](C)(C)CCCCCCCCCC.[Cl-] [Didecyldimonium chloride] | <3.3 | >5.7 | <3.1 | 4.5 | 4 | >4.9 | <3.3 | >5.7 | 4.0 | – | –
CCCCCCCCCCCC[N+](C)(C)CC(=O)[O-] [Lauryl betaine] | – | – | – | – | – | – | – | – | – | <3.1 | –
Benzalkonium chloride | <3.3 | >5.7 | <3.1 | >5.5 | <2.4 | >4.9 | <3.3 | >5.7 | – | – | >5.5
Coco-betaine | – | – | – | – | – | – | – | – | – | <3.1 | –
Lauramidopropyl betaine | – | – | – | – | – | – | – | – | – | <3.0 | –
Meadowfoamamidopropyl betaine | – | – | – | – | – | – | – | – | – | <3.0 | –
